The target in assay [1] is heat-labile enterotoxin from E. coli (Escherichia coli, UniProt P0CK94). Format: binding. As to conditions: at the concentration employed in the assay.
The next assay concerns the target CFA I pili (Escherichia coli, UniProt P0CK93+P25734). The assay is described as follows: biochemical. As to conditions: read-out: inhibition of CFA I pili binding to glycophorin.
In the next assay the target is cholera toxin (Vibrio cholerae serotype O1, UniProt P01556). As to the kind of experiment: biochemical. As to conditions: read-out: inhibition of binding of cholera toxin to ganglioside GD1b.

The term inhibition denotes the relative decrease from the control value, in per cent.

Molecules are shown by their SMILES. A value given as a limit tells only on which side of the number the result lay.

Chain of CFA I pili (P0CK93 24-170): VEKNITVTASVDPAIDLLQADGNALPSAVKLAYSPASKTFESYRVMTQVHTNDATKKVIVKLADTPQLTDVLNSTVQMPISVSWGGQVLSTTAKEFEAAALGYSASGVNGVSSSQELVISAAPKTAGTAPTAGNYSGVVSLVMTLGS
Chain of CFA I pili (P25734 23-360): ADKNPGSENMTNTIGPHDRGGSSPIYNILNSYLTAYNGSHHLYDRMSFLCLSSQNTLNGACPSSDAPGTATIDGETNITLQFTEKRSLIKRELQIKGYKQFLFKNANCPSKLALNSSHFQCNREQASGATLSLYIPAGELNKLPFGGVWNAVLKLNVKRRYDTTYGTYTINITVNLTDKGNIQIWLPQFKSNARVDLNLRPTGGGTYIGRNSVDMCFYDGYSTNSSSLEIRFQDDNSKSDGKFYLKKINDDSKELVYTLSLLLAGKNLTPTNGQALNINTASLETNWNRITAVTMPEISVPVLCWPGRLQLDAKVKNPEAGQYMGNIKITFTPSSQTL
Chain of cholera toxin (P01556 22-124 limits assumed): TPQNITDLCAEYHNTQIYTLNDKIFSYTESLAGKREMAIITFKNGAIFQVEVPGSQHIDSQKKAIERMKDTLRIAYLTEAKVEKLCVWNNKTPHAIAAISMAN
Chain of heat-labile enterotoxin from E. coli (P0CK94 whole entry, looked up): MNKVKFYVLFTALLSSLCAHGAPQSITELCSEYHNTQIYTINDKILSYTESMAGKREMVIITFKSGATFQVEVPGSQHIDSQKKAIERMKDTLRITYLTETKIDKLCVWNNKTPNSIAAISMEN

For the compound `NC1CCCCC1S[C@@H]1O[C@H](CO)[C@H](O)[C@H](O)[C@H]1O` (stereo partly drawn) [Example B2, 2-Aminocyclohex-1-yl 1-Thio-β-D-galactopyranoside], the “inhibition of binding of heat-labile enterotoxin to ganglioside GD1b” value in assay [1] is “at least 20%”. Besides, the inhibition at 1000 µg/mL at CFA I pili fell in the range of 13 to 71%. For `O=C(O)[C@H](Cc1c[nH]cn1)NC1CCCCC1S[C@@H]1O[C@H](CO)[C@H](O)[C@H](O)[C@H]1O` (stereo partly drawn) [Example H2, Nα-[2-(1-Thio-β-D-galactopyranosyl)cyclohex-1-yl]-L-histidine], the figures for the inhibition at 1000 µg/mL at cholera toxin and on CFA I pili were less than 20% and 13 to 71%, respectively.

On to `CC(CC(S[C@@H]1O[C@H](CO)[C@H](O)[C@H](O)[C@H]1O)c1ccccc1)N[C@@H](Cc1c[nH]cn1)C(=O)O` (stereo partly drawn) [Example H3, Nα-[4-Phenyl-4-(1-thio-β-D-galactopyranosyl)but-2-yl]-L-histidine], for which the inhibition at 1000 µg/mL at cholera toxin is not below 20%; on CFA I pili, 13 to 71%. Take `O=C(O)[C@H](Cc1c[nH]cn1)NC1CCCCC(S[C@@H]2O[C@H](CO)[C@H](O)[C@H](O)[C@H]2O)C1` (stereo partly drawn) [Example H5, Nα-[3-(1-Thio-β-D-galactopyranosyl)cyclohept-1-yl]-L-histidine]: the values for the inhibition at 1000 µg/mL at cholera toxin and at CFA I pili were less than 20% and 13 to 71%, respectively.

For `CC1(C)CC(N[C@@H](Cc2c[nH]cn2)C(=O)O)CC1S[C@@H]1O[C@H](CO)[C@H](O)[C@H](O)[C@H]1O` (stereo partly drawn) [Example H6, Nα-[4,4-Dimethyl-3-(1-thio-β-D-galactopyranosyl)-cyclopent-1-yl]-L-histidine], the inhibition at 1000 µg/mL at CFA I pili is 13 to 71%. In the case of `O=C(O)[C@H](Cc1c[nH]cn1)NC1CCC(S[C@@H]2O[C@H](CO)[C@H](O)[C@H](O)[C@H]2O)C1` (stereo partly drawn) [Example H7, Nα-[3-(1-Thio-β-D-galactopyranosyl)cyclopent-1-yl]-L-histidine], the inhibition at 1000 µg/mL at CFA I pili lay within 13 to 71%.

Turning to `CC(CC(C)S[C@@H]1O[C@H](CO)[C@H](O)[C@H](O)[C@H]1O)N[C@@H](Cc1c[nH]cn1)C(=O)O` (stereo partly drawn) [Example H8, Nα-[4-(1-Thio-β-D-galactopyranosyl)pent-2-yl]-L-histidine], the inhibition at 1000 µg/mL on cholera toxin is less than 20%; on CFA I pili it was 13 to 71%. On the same counts, the results for `CC1(C)CCC(N[C@@H](Cc2c[nH]cn2)C(=O)O)CC1S[C@@H]1O[C@H](CO)[C@H](O)[C@H](O)[C@H]1O` (stereo partly drawn) [Example H9, Nα-[4,4-Dimethyl-3-(1-thio-β-D-galactopyranosyl)-cyclohex-1-yl]-L-histidine] are less than 20% and 13 to 71%. For `O=C(O)[C@H](Cc1c[nH]cn1)NC1CCCC(S[C@@H]2O[C@H](CO)[C@H](O)[C@H](O)[C@H]2O)C1` (stereo partly drawn) [Example H10, Nα-[3-(1-Thio-β-D-galactopyranosyl)cyclohex-1-yl]-L-histidine], the inhibition at 1000 µg/mL was less than 20% at cholera toxin and 13 to 71% on CFA I pili. As for `O=C(O)[C@H](Cc1c[nH]c2ccccc12)NC1CCCC1S[C@@H]1O[C@H](CO)[C@H](O)[C@H](O)[C@H]1O` (stereo partly drawn) [Example I1, Nα-[2-(1-Thio-β-D-galactopyranosyl)cyclopent-1-yl]-L-tryptophan], the results for the inhibition at 1000 µg/mL at cholera toxin and at CFA I pili were not below 20% and 13 to 71%, respectively. For `O=C(O)[C@H](Cc1c[nH]c2ccccc12)NC1CCCCC1S[C@@H]1O[C@H](CO)[C@H](O)[C@H](O)[C@H]1O` (stereo partly drawn) [Example I2, Nα-[2-(1-Thio-β-D-galactopyranosyl)cyclohex-1-yl]-L-tryptophan], the “inhibition of binding of heat-labile enterotoxin to ganglioside GD1b” value in assay [1] is listed as “at least 20%”. For the same compound, the figures for the inhibition at 1000 µg/mL on cholera toxin and at CFA I pili were less than 20% and 13 to 71%, respectively. As to `CC1(C)CCC(N[C@@H](CCCNC(=N)N)C(=O)O)CC1S[C@@H]1O[C@H](CO)[C@H](O)[C@H](O)[C@H]1O` (stereo partly drawn) [Example J9, Nα-[4,4-Dimethyl-3-(1-thio-β-D-galactopyranosyl)-cyclohex-1-yl]-L-arginine], the results for the inhibition at 1000 µg/mL on cholera toxin and at CFA I pili were less than 20% and 13 to 71%, respectively.
